From patent US11178873B2, “Cyclic N-carboxamide compounds useful as herbicides” (FMC CORPORATION, priority 2015, dated 2021)

Legend:
Type in all cases: in vivo
[1] = test system: foxtail, giant (giant foxtail, Setaria faberii); experiment: Test A preemergence, foxtail, giant; conditions: 0 to 100 scale, 0 no effect, 100 complete control
How it was run: (§1)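 Visual injury scores (0 = no effect, 100 = complete control) were assigned roughly 10 d after treatment by comparison with untreated controls. Chemicals, formulated in a non-phytotoxic solvent mixture containing surfactant, were applied as a preemergence directed soil spray or postemergence to one- to two-leaf plants 2 to 10 cm tall.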

[2] = test system: barnyardgrass (Echinochloa crus-galli); experiment: Test A postemergence, barnyardgrass; conditions: 0 to 100 scale, 0 no effect, 100 complete control
How it was run: as §1

[3] = test system: foxtail, giant (giant foxtail, Setaria faberii); experiment: Test A postemergence, foxtail, giant; conditions: 0 to 100 scale, 0 no effect, 100 complete control
How it was run: as §1

[4] = test system: barnyardgrass (Echinochloa crus-galli); experiment: Test B flooded paddy test, barnyardgrass; conditions: Flood, 250 g ai/ha; scale 0 to 100 (0 no effect, 100 complete control); 13 to 15 d
How it was run: (§2)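 Ratings use a 0-100 visual scale, where 100 is complete control, and compare treated plants with controls after 13 to 15 d of greenhouse growth. Compound went straight into paddy water kept 3 cm over the soil surface, applied to seedlings at the 2-leaf stage.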

[5] = test system: morningglory (Ipomoea spp.); experiment: Test A preemergence, morningglory; conditions: 0 to 100 scale, 0 no effect, 100 complete control
Description: (§3) Seeds of plant species selected from barnyardgrass (Echinochloa crus-galli), crabgrass, large (large crabgrass, Digitaria sanguinalis), kochia (Kochia scoparia), ragweed (common ragweed, Ambrosia elatior), morningglory (Ipomoea spp.), velvetleaf (Abutilon theophrasti), ryegrass, Italian (Italian ryegrass, Lolium multiflorum), foxtail, giant (giant foxtail, Setaria faberii), wheat (Triticum aestivum), corn (Zea mays), and pigweed (Amaranthus retroflexus), were planted into a blend of loam soil and sand and treated preemergence with a directed soil spray using test chemicals formulated in a non-phytotoxic solvent mixture which included a surfactant. At the same time, plants selected from these crop and weed species and also blackgrass (Alopecurus myosuroides), and galium (catchweed bedstraw, Galium aparine), were planted in pots containing the same blend of loam soil and sand and treated with postemergence applications of test chemicals formulated in the same manner. Plants ranged in height from 2 to 10 cm and were in the one- to two-leaf stage for the postemergence treatment. Treated plants and untreated controls were maintained in a greenhouse for approximately 10 d, after which time all treated plants were compared to untreated controls and visually evaluated for injury. Plant response ratings, summarized in Table A, are based on a 0 to 100 scale where 0 is no effect and 100 is complete control. A dash (-) response means no test result.

corn (Zea mays) [6] = experiment: Test A postemergence, corn; conditions: 0 to 100 scale, 0 no effect, 100 complete control
How it was run: as §1

[7] = test system: velvetleaf (Abutilon theophrasti); experiment: Test A postemergence, velvetleaf; conditions: 0 to 100 scale, 0 no effect, 100 complete control
Description: as §3

[8] = test system: velvetleaf (Abutilon theophrasti); experiment: Test A preemergence, velvetleaf; conditions: 0 to 100 scale, 0 no effect, 100 complete control
Description: as §3

[9] = test system: crabgrass, large (large crabgrass, Digitaria sanguinalis); experiment: Test A preemergence, crabgrass, large; conditions: 0 to 100 scale, 0 no effect, 100 complete control
Description: as §3

[10] = test system: morningglory (Ipomoea spp.); experiment: Test A postemergence, morningglory; conditions: 0 to 100 scale, 0 no effect, 100 complete control
Description: as §3

[11] = test system: pigweed (Amaranthus retroflexus); experiment: Test A postemergence, pigweed; conditions: 0 to 100 scale, 0 no effect, 100 complete control
How it was run: as §1

[12] = test system: sedge, umbrella (small-flower umbrella sedge, Cyperus difformis); experiment: Test B flooded paddy test, sedge, umbrella; conditions: Flood, 250 g ai/ha; scale 0 to 100 (0 no effect, 100 complete control); 13 to 15 d
How it was run: as §2

[13] = test system: pigweed (Amaranthus retroflexus); experiment: Test A preemergence, pigweed; conditions: 0 to 100 scale, 0 no effect, 100 complete control
How it was run: as §1

[14] = test system: barnyardgrass (Echinochloa crus-galli); experiment: Test A preemergence, barnyardgrass; conditions: 0 to 100 scale, 0 no effect, 100 complete control
How it was run: as §1

corn (Zea mays) [15] = experiment: Test A preemergence, corn; conditions: 0 to 100 scale, 0 no effect, 100 complete control
Description: as §3

[16] = test system: wheat (Triticum aestivum); experiment: Test A postemergence, wheat; conditions: 0 to 100 scale, 0 no effect, 100 complete control
How it was run: as §1

[17] = test system: ducksalad (Heteranthera limosa); experiment: Test B flooded paddy test, ducksalad; conditions: Flood, 250 g ai/ha; scale 0 to 100 (0 no effect, 100 complete control); 13 to 15 d
How it was run: as §2

[18] = test system: wheat (Triticum aestivum); experiment: Test A preemergence, wheat; conditions: 0 to 100 scale, 0 no effect, 100 complete control
Description: as §3

[19] = test system: crabgrass, large (large crabgrass, Digitaria sanguinalis); experiment: Test A postemergence, crabgrass, large; conditions: 0 to 100 scale, 0 no effect, 100 complete control
Description: as §3

rice (Oryza sativa) = experiment: Test B flooded paddy test, rice; conditions: Flood, 250 g ai/ha; scale 0 to 100 (0 no effect, 100 complete control); 13 to 15 d
How it was run: as §2

## O=C(Nc1ccccc1C(F)(F)F)N1C(=O)OCC1c1ccc(F)c(F)c1 (stereo not drawn) [Compound 1]
[1]; 125 g ai/ha
  Plant response rating, Foxtail, Giant: 0
[1]; 500 g ai/ha
  Plant response rating, Foxtail, Giant: 0
[2]; 125 g ai/ha
  Plant response rating, Barnyardgrass: 0
[2]; 500 g ai/ha
  Plant response rating, Barnyardgrass: 0
[3]; 125 g ai/ha
  Plant response rating, Foxtail, Giant: 0
[3]; 500 g ai/ha
  Plant response rating, Foxtail, Giant: 0
[4]
  Plant response rating, Barnyardgrass: 0
[5]; 125 g ai/ha
  Plant response rating, Morningglory: 0
[5]; 500 g ai/ha
  Plant response rating, Morningglory: 0
Corn (Zea mays) [6]; 125 g ai/ha
  Plant response rating, Corn: 0
Corn (Zea mays) [6]; 500 g ai/ha
  Plant response rating, Corn: 0
[7]; 125 g ai/ha
  Plant response rating, Velvetleaf: 0
[7]; 500 g ai/ha
  Plant response rating, Velvetleaf: 0
[8]; 125 g ai/ha
  Plant response rating, Velvetleaf: 0
[8]; 500 g ai/ha
  Plant response rating, Velvetleaf: 0
[9]; 125 g ai/ha
  Plant response rating, Crabgrass, Large: 30
[9]; 500 g ai/ha
  Plant response rating, Crabgrass, Large: 70
[10]; 125 g ai/ha
  Plant response rating, Morningglory: 0
[10]; 500 g ai/ha
  Plant response rating, Morningglory: 0
[11]; 125 g ai/ha
  Plant response rating, Pigweed: 0
[11]; 500 g ai/ha
  Plant response rating, Pigweed: 0
[12]
  Plant response rating, Sedge, Umbrella: 0
[13]; 125 g ai/ha
  Plant response rating, Pigweed: 0
[13]; 500 g ai/ha
  Plant response rating, Pigweed: 0
[14]; 125 g ai/ha
  Plant response rating, Barnyardgrass: 0
[14]; 500 g ai/ha
  Plant response rating, Barnyardgrass: 0
Corn (Zea mays) [15]; 125 g ai/ha
  Plant response rating, Corn: 0
Corn (Zea mays) [15]; 500 g ai/ha
  Plant response rating, Corn: 0
[16]; 125 g ai/ha
  Plant response rating, Wheat: 0
[16]; 500 g ai/ha
  Plant response rating, Wheat: 0
[17]
  Plant response rating, Ducksalad: 0
[18]; 125 g ai/ha
  Plant response rating, Wheat: 0
[18]; 500 g ai/ha
  Plant response rating, Wheat: 0
[19]; 125 g ai/ha
  Plant response rating, Crabgrass, Large: 0
[19]; 500 g ai/ha
  Plant response rating, Crabgrass, Large: 20
Rice (Oryza sativa)
  Plant response rating, Rice: 0

## O=C(Nc1ccccc1F)N1C(=O)OCC1c1ccc(F)c(F)c1 (stereo not drawn) [Compound 3, 4-(3,4-difluorophenyl)-N-(2-fluorophenyl)-2-oxo-3-oxazolidinecarboxamide]
[1]; 1000 g ai/ha
  Plant response rating, Foxtail, Giant: 50
[2]; 1000 g ai/ha
  Plant response rating, Barnyardgrass: 20
[3]; 1000 g ai/ha
  Plant response rating, Foxtail, Giant: 40
[5]; 1000 g ai/ha
  Plant response rating, Morningglory: 0
Corn (Zea mays) [6]; 1000 g ai/ha
  Plant response rating, Corn: 0
[7]; 1000 g ai/ha
  Plant response rating, Velvetleaf: 0
[8]; 1000 g ai/ha
  Plant response rating, Velvetleaf: 0
[9]; 1000 g ai/ha
  Plant response rating, Crabgrass, Large: 90
[11]; 1000 g ai/ha
  Plant response rating, Pigweed: 0
[13]; 1000 g ai/ha
  Plant response rating, Pigweed: 0
[14]; 1000 g ai/ha
  Plant response rating, Barnyardgrass: 0
Corn (Zea mays) [15]; 1000 g ai/ha
  Plant response rating, Corn: 0
[16]; 1000 g ai/ha
  Plant response rating, Wheat: 0
[18]; 1000 g ai/ha
  Plant response rating, Wheat: 0
[19]; 1000 g ai/ha
  Plant response rating, Crabgrass, Large: 80
